# Test system: ZIKV in human astrocytes
# Test: ZIKV infection of human astrocytes (ZIKVE immunostaining, NS1 Western blot/ELISA)
# Type: cell-based, Zika virus
# Conditions: PRVABC59
# Method: FIGS. 4A-1, 4A-2, 4B-1, 4B-2, 4B-3, 4C-1, 4C-2, 4D-1, and 4D-2. […] Cells were fixed 24 hours post infection and stained for ZIKVE (green) and DAPI (blue). Scale bar: 50 μm. Also shown is the quantification of ZIKV-infected astrocytes with multiple compound concentrations (FIG. 4A-2). Values represent mean±s.d. (n=6; ***P<0.001; One-way ANOVA). Shown in FIG. 4B-3 is virus production from compound-treated iPSC-derived human astrocytes (as in FIG. 2F) (n=3 cultures). Data represent mean±s.d. […] Shown are sample images and quantification (FIGS. 4B-1 and 4B-2). Values represent mean±s.d. (n=2; ***P<0.01; One-way ANOVA). Synergistic effect of Emricasan/PHA-690509 combination on improving cell viability in ZIKV infected astrocytes. Note that Emricasan and PHA-690509 inhibit the increased caspase-3 activity in a concentration-dependent manner in human astrocytes infected with FSS13025-ZIKV or MR766 ZIKV, and improve cell viability as measured by ATP production (FIGS. 4C-1, 4C-2, 4D-1, and 4D-2). Values represent mean±s.d. […]
# FIGS. 8A-8E. […] Cell lysates were harvested 24 hours post infection and analyzed for ZIKV-NS1 and GAPDH protein levels by western blot. Shown are representative Western blot images (FIG. 8A) and quantification (FIG. 8B). […] Shown in FIG. 8D are representative images of immunostaining for ZIKVE (green) and DAPI (gray, left; Scale bar: 20 μm) and quantification (FIG. 8E). […]
row,SMILES,inhibition of ZIKV infection in astrocytes
1,O=C(Nc1ccc([N+](=O)[O-])cc1Cl)c1cc(Cl)ccc1O [Niclosamide],inhibited ZIKV^PR infection
2,CC(=O)Nc1ccc([C@H](C)C(=O)Nc2ncc(C(C)C)s2)cc1 [PHA-690509],inhibited ZIKV^PR infection

# Reference: patent US10940188B2, “Compounds and methods for treatment and prevention of Flavivirus infection” (priority 2016, dated 2021)
